Measurements as given in patent publication US8759364B2, “Methods of treating bone mass diseases” (The Trustees of Columbia University in the City of New York, priority 2008, dated 2014).
“Also recorded” adds a separate entry of the source.

System: Lrp5−/− mice
Test: pCPA treatment of WT and Lrp5−/− mice (bone histomorphometry, serum serotonin, TPH1/TPH2 expression)
Format: in vivo
Procedure: Consistent with the conclusion that the increase in serum serotonin level is responsible fully or partly for the bone phenotype of the Lrp5−/− mice is the discovery that pCPA, a serotonin synthesis inhibitor (Eldridge et al., 1981, Ann. Rev. Physiol. 43:121-135), prevented the appearance of the Lrp5−/− bone phenotype by decreasing serotonin production. WT and Lrp5−/− mice were treated with 300 mg/kg pCPA intraperitoneally three times per week, from 3 weeks to 12 weeks of age (FIG. 7A) and the changes in serum serotonin levels, TPH1 expression in gut and TPH2 expression in brain stem were analyzed. Bone histomorphometry was also performed. […] This rescue of the Lrp5−/− phenotype was achieved by normalization of the gut TPH1 mRNA and of serum serotonin levels (FIGS. 7C and 7D).
Generation of Lrp5−/− (Kato et al., 2002, J. Cell Biol. 157:303-314) β-cateninfloxed/floxed (Glass et al., 2005, Dev. Cell 8:751-764), α1(I)collagen-cre transgenic (Dacquin et al., 2002, Dev. Dyn. 224:245-251) and Htt−/− (Ansorge et al., 2008, J. Neurosci. 28:199-207) mice were as described previously. Lrp5+/−;Htt+/− double heterozygous mice were generated by crossing Lrp5+/− and Htt+/− mice. Three week-old Wt or Lrp5−/− mice were administered pCPA on alternate days for 9 weeks by i.p. All animal protocols were approved by the Animal Care Committees of Columbia University.
Static histomorphometry measurements were performed as previously described in accordance with standard nomenclature, using the Osteomeasure Analysis System (Osteometrics, Inc) (Ducy et al., 2000, Cell 100:197-207). Four to 9 animals were assigned per group.
Serotonin serum levels were quantified using immunoassay kits from Fitzgerald (Serotonin) and serotonin levels in the different regions of the brain were quantified by HPLC method as described previously (Mann et al., 1992, Arch. Gen. Psychiatry 49:442-446).

[1] = 300 mg/kg pCPA i.p. three times per week, 3 to 12 weeks of age, FIG. 7

SMILES: NC(Cc1ccc(Cl)cc1)C(=O)O (centres unmarked) [pCPA, para-chlorophenylalanine]
- bone mass in WT mice (300 mg/kg pCPA i.p. three times per week, 3 to 12 weeks of age): without overtly affecting
- gut TPH1 mRNA in Lrp5−/− mice [1]: normalization
- serum serotonin levels in Lrp5−/− mice [1]: normalization; also recorded: normalizes
- bone abnormalities (low bone phenotype) of Lrp5−/− mice (300 mg/kg pCPA i.p. three times per week, 3 to 12 weeks of age, histomorphometry, FIG. 7B): corrected
- Brain TPH2 mRNA levels (treated mice, 300 mg/kg pCPA i.p.): not affected
